# Read-outs that look alike come from different tables or passages of the source.
# How the values were obtained:
# Test in all cases: ActivX kinase probe assay (human PBMC)
# Format in all cases: binding
# SGK3 = SGK3 (Homo sapiens (Human), UniProt Q96BR1); conditions: SGK3, read-out: percent inhibition
# ZC2/TNIK = ZC2/TNIK (Homo sapiens (Human), UniProt Q9UKE5); conditions: ZC2/TNIK, read-out: percent inhibition
# LATS2 = LATS2 (Homo sapiens (Human), UniProt Q9NRM7); conditions: LATS2, read-out: percent inhibition
# Chain of LATS2 (Q9NRM7 whole entry): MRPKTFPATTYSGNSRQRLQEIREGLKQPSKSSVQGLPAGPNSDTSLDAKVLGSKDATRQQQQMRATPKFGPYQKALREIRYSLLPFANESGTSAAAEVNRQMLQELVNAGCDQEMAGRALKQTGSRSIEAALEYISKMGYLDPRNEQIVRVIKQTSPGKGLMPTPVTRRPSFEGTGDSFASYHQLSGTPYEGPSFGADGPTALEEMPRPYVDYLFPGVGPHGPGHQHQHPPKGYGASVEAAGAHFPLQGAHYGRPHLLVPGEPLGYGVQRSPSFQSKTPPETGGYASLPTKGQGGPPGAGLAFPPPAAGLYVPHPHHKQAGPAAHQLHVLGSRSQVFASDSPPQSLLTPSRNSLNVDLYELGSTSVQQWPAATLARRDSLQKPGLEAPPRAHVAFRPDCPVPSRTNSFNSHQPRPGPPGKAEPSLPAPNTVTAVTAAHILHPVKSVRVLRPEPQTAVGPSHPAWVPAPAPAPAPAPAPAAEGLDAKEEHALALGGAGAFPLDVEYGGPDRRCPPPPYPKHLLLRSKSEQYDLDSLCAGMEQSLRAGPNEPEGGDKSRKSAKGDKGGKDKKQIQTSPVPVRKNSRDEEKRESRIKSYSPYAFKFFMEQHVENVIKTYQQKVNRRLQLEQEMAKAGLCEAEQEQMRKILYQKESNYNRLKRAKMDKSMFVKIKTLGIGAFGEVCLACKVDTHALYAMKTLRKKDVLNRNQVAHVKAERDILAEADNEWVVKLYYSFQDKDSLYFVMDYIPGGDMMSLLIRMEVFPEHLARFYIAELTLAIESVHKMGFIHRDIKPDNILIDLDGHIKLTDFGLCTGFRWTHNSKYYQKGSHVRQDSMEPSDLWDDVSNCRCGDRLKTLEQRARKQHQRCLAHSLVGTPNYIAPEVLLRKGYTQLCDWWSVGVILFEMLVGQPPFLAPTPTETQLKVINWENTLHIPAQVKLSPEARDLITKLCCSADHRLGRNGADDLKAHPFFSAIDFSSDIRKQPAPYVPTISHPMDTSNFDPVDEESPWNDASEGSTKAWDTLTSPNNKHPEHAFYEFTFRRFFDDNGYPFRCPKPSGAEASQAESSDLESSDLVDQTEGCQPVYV
# CaMK2d = CaMK2d (Homo sapiens (Human), UniProt Q13557); conditions: CaMK2d, read-out: percent inhibition
# MAP3K5 = MAP3K5 (Homo sapiens (Human), UniProt Q99683); conditions: MAP3K5, read-out: percent inhibition
# Chain of MAP3K5 (Q99683 whole entry): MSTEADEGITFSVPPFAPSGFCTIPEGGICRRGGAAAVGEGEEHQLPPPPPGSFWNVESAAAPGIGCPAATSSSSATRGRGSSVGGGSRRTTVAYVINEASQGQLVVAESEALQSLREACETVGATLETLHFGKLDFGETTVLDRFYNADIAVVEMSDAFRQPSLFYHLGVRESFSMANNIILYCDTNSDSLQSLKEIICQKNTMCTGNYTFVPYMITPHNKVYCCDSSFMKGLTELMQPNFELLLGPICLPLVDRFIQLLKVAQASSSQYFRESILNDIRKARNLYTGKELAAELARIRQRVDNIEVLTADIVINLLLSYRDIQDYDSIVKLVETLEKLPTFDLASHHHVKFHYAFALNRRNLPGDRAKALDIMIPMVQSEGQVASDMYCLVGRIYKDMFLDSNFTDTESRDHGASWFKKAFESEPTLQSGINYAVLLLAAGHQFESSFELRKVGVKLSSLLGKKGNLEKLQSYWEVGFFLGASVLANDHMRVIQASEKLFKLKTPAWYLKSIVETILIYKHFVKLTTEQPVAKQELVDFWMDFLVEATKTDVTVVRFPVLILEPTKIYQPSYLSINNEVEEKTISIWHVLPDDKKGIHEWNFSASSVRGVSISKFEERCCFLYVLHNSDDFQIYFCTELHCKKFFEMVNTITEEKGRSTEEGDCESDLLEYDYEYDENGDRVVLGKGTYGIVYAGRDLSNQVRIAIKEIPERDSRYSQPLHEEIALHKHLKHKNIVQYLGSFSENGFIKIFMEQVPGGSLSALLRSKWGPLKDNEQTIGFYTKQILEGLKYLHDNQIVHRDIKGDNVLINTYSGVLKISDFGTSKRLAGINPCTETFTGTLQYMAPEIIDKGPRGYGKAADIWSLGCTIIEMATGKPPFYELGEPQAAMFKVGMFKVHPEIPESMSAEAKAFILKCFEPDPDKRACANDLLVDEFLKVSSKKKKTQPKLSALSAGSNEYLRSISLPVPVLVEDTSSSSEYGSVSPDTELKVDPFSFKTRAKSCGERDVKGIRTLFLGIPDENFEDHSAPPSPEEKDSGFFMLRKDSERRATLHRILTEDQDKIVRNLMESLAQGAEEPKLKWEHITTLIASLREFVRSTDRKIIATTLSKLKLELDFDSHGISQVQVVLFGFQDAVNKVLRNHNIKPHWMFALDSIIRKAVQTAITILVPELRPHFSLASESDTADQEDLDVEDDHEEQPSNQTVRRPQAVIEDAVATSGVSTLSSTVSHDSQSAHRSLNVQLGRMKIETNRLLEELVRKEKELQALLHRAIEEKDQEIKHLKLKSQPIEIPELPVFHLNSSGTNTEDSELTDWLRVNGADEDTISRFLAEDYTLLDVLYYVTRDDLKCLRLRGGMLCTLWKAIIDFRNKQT
# JAK1 = JAK1 (Homo sapiens (Human), UniProt P23458); conditions: JAK1, read-out: percent inhibition
# AMPKa1, AMPKa2 = system: AMPKa1, AMPKa2
# FYN = FYN (Homo sapiens (Human), UniProt P06241); conditions: FYN, read-out: percent inhibition
# MLKL = MLKL (Homo sapiens (Human), UniProt Q8NB16); conditions: MLKL, read-out: percent inhibition
# NEK7 = NEK7 (Homo sapiens (Human), UniProt Q8TDX7); conditions: NEK7, read-out: percent inhibition
# CaMK1a = CaMK1a (Homo sapiens (Human), UniProt Q14012); conditions: CaMK1a, read-out: percent inhibition
# FRAP = FRAP (Homo sapiens (Human), UniProt P42345); conditions: FRAP, read-out: percent inhibition
# MAP2K1, MAP2K2 = system: MAP2K1, MAP2K2
# MAP2K4 = MAP2K4 (Homo sapiens (Human), UniProt P45985); conditions: MAP2K4, read-out: percent inhibition
# AKT1 = AKT1 (Homo sapiens (Human), UniProt P31749); conditions: AKT1, read-out: percent inhibition
# RSK1 domain2 = RSK1 domain2 (Homo sapiens (Human), UniProt Q15418); conditions: RSK1 domain2, read-out: percent inhibition
# MAP2K6 = MAP2K6 (Homo sapiens (Human), UniProt P52564); conditions: MAP2K6, read-out: percent inhibition
# LOK = LOK (Homo sapiens (Human), UniProt O94804); conditions: LOK, read-out: percent inhibition
# p38d, p38g = system: p38d, p38g
# MAP3K1 = MAP3K1 (Homo sapiens (Human), UniProt Q13233); conditions: MAP3K1, read-out: percent inhibition
# STLK5 = STLK5 (Homo sapiens (Human), UniProt Q7RTN6); conditions: STLK5, read-out: percent inhibition
# GCN2 = GCN2 (Homo sapiens (Human), UniProt Q9P2K8); conditions: GCN2, read-out: percent inhibition
# SYK = SYK (Homo sapiens (Human), UniProt P43405); conditions: SYK, read-out: percent inhibition
# IRAK3 = IRAK3 (Homo sapiens (Human), UniProt Q9Y616); conditions: IRAK3, read-out: percent inhibition
# AMPKa1 = AMPKa1 (Homo sapiens (Human), UniProt Q13131); conditions: AMPKa1, read-out: percent inhibition
# Chain of AMPKa1 (Q13131 whole entry): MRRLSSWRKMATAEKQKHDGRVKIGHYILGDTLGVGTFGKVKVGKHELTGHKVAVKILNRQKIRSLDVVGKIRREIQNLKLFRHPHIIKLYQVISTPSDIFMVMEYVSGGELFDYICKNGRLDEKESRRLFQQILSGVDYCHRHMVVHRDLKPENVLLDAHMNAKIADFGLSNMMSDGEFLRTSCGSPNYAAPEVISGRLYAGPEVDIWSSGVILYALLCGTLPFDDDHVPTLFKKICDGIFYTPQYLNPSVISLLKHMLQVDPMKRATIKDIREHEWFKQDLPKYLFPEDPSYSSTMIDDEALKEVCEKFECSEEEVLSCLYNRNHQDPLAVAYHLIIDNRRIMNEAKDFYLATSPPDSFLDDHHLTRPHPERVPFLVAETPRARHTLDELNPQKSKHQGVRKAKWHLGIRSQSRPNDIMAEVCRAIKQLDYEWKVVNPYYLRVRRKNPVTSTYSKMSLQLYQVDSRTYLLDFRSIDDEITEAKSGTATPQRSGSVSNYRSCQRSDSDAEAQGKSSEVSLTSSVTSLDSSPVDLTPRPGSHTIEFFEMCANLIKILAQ
# Chain of AMPKa1 (Q9Y478 2-270 partner): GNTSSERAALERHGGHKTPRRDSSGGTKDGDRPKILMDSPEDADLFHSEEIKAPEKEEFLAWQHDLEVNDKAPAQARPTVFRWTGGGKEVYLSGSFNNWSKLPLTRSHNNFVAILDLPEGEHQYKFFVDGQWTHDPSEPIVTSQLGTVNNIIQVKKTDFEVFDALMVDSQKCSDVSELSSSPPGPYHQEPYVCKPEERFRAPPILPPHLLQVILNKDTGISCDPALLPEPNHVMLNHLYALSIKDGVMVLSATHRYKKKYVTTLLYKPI
# Chain of AMPKa1 (P54619 whole entry partner): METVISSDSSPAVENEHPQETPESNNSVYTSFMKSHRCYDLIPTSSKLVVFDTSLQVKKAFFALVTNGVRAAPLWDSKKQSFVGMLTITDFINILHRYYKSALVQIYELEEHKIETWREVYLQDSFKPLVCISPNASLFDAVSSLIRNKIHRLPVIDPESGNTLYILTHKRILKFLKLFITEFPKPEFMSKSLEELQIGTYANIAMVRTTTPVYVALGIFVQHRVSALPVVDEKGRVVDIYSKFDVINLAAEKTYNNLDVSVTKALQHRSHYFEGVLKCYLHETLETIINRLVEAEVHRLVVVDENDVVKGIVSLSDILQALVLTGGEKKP
# BRAF = BRAF (Homo sapiens (Human), UniProt P15056); conditions: BRAF, read-out: percent inhibition
# PIP4K2C = PIP4K2C (Homo sapiens (Human), UniProt Q8TBX8); conditions: read-out: percent inhibition
# Chain of PIP4K2C (Q8TBX8 whole entry): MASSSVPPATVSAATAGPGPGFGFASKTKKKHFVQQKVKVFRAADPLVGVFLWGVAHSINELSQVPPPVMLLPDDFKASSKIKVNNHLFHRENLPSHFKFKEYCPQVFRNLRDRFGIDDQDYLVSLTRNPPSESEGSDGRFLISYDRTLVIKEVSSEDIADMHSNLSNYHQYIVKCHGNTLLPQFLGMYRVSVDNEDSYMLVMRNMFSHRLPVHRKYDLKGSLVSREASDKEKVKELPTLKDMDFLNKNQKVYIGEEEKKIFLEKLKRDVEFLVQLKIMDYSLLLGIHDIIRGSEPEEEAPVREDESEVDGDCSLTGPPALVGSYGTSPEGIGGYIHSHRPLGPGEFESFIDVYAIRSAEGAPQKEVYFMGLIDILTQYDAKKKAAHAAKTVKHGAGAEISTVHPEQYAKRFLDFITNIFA
# IRAK4 = IRAK4 (Homo sapiens (Human), UniProt Q9NWZ3); conditions: IRAK4, read-out: percent inhibition
# Chain of IRAK4 (Q9NWZ3 whole entry): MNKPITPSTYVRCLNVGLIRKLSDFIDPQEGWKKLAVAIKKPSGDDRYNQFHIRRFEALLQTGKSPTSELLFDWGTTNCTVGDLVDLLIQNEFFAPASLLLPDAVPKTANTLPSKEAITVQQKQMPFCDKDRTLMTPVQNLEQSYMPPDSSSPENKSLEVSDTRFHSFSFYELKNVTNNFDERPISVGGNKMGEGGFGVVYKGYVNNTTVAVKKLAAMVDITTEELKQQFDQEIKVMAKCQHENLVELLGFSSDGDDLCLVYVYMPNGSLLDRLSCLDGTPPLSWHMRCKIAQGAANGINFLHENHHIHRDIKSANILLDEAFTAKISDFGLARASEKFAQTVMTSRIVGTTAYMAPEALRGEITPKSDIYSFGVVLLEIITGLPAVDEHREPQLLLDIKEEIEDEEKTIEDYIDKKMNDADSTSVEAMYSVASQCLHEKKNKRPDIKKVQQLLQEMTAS
# PRPK = PRPK (Homo sapiens (Human), UniProt Q96S44); conditions: read-out: percent inhibition
# Chain of PRPK (Q96S44 whole entry): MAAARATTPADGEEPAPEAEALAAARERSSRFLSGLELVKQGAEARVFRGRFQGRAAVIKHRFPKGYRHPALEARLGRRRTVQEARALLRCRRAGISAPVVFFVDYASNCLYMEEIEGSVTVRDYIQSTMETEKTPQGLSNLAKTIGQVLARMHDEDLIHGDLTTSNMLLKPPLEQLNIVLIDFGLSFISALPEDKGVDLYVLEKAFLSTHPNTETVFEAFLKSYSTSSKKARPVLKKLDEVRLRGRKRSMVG
# Experimental: Certain of the compounds of the present invention were assessed for kinase selectivity using a commercially available ActiveX targeted kinase probe in which the tissue employed was human peripheral blood mononuclear cells (PBMC). The test compounds were provided to ActivX Biosciences, Inc., 11025 North Torrey Pines Road, Suite 120; LaJolla, Calif., USA 92037. The compounds were run in the ActivX proprietary kinase assay and results were obtained at compound test concentrations of 1 μM (columns 2, 4 and 6) and 0.1 μM (columns 3, 5 and 7). The results as percent inhibition obtained for the compounds of Examples 1, 4 and 217 are provided below in Table 3.
# ILK = ILK (Homo sapiens (Human), UniProt Q13418); conditions: ILK, read-out: percent inhibition
# JAK3 domain2 = JAK3 domain2 (Homo sapiens (Human), UniProt P52333); conditions: JAK3 domain2, read-out: percent inhibition
compound,measurement,setting,value
"Cn1cc(-c2c[nH]c3ncnc(N4CCOCC4)c23)cn1 [Example 1, 5-(1-Methyl-1H-pyrazol-4-yl)-4-(morpholin-4-yl)-7H-pyrrolo[2,3-d]pyrimidine]",inhibition at 0.1 µM,SGK3; 0.1 μM,2.5%
same,inhibition at 1 µM,SGK3; 1 μM,9.9%
same,inhibition at 0.1 µM,ZC2/TNIK; 0.1 μM,-10.6%
same,inhibition at 1 µM,ZC2/TNIK; 1 μM,31.2%
same,inhibition at 0.1 µM,LATS2; 0.1 μM,21.2%
same,inhibition at 1 µM,LATS2; 1 μM,11%
same,inhibition at 0.1 µM,CaMK2d; 0.1 μM,-45.3%
same,inhibition at 1 µM,CaMK2d; 1 μM,-38.1%
same,inhibition at 0.1 µM,MAP3K5; 0.1 μM,6.2%
same,inhibition at 1 µM,MAP3K5; 1 μM,2.1%
same,inhibition at 0.1 µM,JAK1; 0.1 μM,15%
same,inhibition at 1 µM,JAK1; 1 μM,54.2%
same,percent inhibition,"AMPKa1, AMPKa2; 0.1 μM",10.8%
same,percent inhibition,"AMPKa1, AMPKa2; 1 μM",49.7%
same,inhibition at 0.1 µM,FYN; 0.1 μM,6.7%
same,inhibition at 1 µM,FYN; 1 μM,-10.1%
same,inhibition at 0.1 µM,MLKL; 0.1 μM,1.6%
same,inhibition at 1 µM,MLKL; 1 μM,8.4%
same,inhibition at 0.1 µM,NEK7; 0.1 μM,-0.6%
same,inhibition at 1 µM,NEK7; 1 μM,-18.8%
same,inhibition at 0.1 µM,CaMK1a; 0.1 μM,2%
same,inhibition at 1 µM,CaMK1a; 1 μM,6.3%
same,inhibition at 0.1 µM,FRAP; 0.1 μM,-3.2%
same,inhibition at 1 µM,FRAP; 1 μM,-1.2%
same,percent inhibition,"MAP2K1, MAP2K2; 0.1 μM",1%
same,percent inhibition,"MAP2K1, MAP2K2; 1 μM",−2.2%
same,inhibition at 0.1 µM,MAP2K4; 0.1 μM,10.1%
same,inhibition at 1 µM,MAP2K4; 1 μM,9.6%
same,inhibition at 0.1 µM,AKT1; 0.1 μM,11.3%
same,inhibition at 1 µM,AKT1; 1 μM,18.8%
same,inhibition at 0.1 µM,RSK1 domain2; 0.1 μM,-12.7%
same,inhibition at 1 µM,RSK1 domain2; 1 μM,18.1%
same,inhibition at 0.1 µM,MAP2K6; 0.1 μM,17.5%
same,inhibition at 1 µM,MAP2K6; 1 μM,19%
same,inhibition at 0.1 µM,LOK; 0.1 μM,5.7%
same,inhibition at 1 µM,LOK; 1 μM,22.6%
same,percent inhibition,"p38d, p38g; 0.1 μM",−37.3%
same,percent inhibition,"p38d, p38g; 1 μM",−24%
same,inhibition at 0.1 µM,MAP3K1; 0.1 μM,-9.4%
same,inhibition at 1 µM,MAP3K1; 1 μM,11.9%
same,inhibition at 0.1 µM,STLK5; 0.1 μM,-1.5%
same,inhibition at 1 µM,STLK5; 1 μM,-46.5%
same,inhibition at 0.1 µM,GCN2; 0.1 μM,0.1%
same,inhibition at 1 µM,GCN2; 1 μM,-25.1%
same,inhibition at 0.1 µM,SYK; 0.1 μM,-8.9%
same,inhibition at 1 µM,SYK; 1 μM,-6.1%
same,inhibition at 0.1 µM,IRAK3; 0.1 μM,30.1%
same,inhibition at 1 µM,IRAK3; 1 μM,68.7%
same,inhibition at 0.1 µM,AMPKa1; 0.1 μM,1.5%
same,inhibition at 1 µM,AMPKa1; 1 μM,27%
same,inhibition at 0.1 µM,BRAF; 0.1 μM,-6.5%
same,inhibition at 1 µM,BRAF; 1 μM,-51.5%
same,inhibition at 0.1 µM,PIP4K2C; PIP4K2C (first line of two),1.4%
same,inhibition at 1 µM,PIP4K2C; PIP4K2C (first line of two),-1.4%
same,inhibition at 0.1 µM,PIP4K2C; PIP4K2C (second line of two),-48%
same,inhibition at 1 µM,PIP4K2C; PIP4K2C (second line of two),0.9%
same,inhibition at 0.1 µM,IRAK4; 0.1 μM,17.7%
same,inhibition at 1 µM,IRAK4; 1 μM,34.7%
same,inhibition at 0.1 µM,PRPK; 0.1 μM,-3.4%
same,inhibition at 1 µM,PRPK; 1 μM,-13.8%
same,inhibition at 0.1 µM,ILK; 0.1 μM,-34%
same,inhibition at 1 µM,ILK; 1 μM,-56.6%
same,inhibition at 0.1 µM,JAK3 domain2; 0.1 μM,2.7%
same,inhibition at 1 µM,JAK3 domain2; 1 μM,-5.2%

# Source: patent US9156845B2, “4-(substituted amino)-7H-pyrrolo[2,3-d] pyrimidines as LRRK2 inhibitors” (Pfizer Inc., priority 2012, dated 2015)
